What was measured:
Type in all cases: in vivo
[1] = system: yellow fever mosquito (Aedes aegypti); assay: whole plant or invertebrate; conditions: 48 h, larval mortality, 2 days, read-out: mortality in comparison with untreated controls
Experimental: (§1) If not otherwise specified, the test solutions are prepared as follows: The active compound is dissolved at the desired concentration in a mixture of 1:1 (vol:vol) distilled water:acteone. The test solution is prepared at the day of use. Test solutions are prepared in general at concentrations of 2500 ppm, 1415 ppm, 828 ppm, 800 ppm and 300 ppm (wt/vol).
For evaluating control of yellow fever mosquito (Aedes aegypti) the test unit consisted of 96-well-microtiter plates containing 200 μl of tap water per well and 5-15 freshly hatched A. aegypti 5 larvae. The active compounds were formulated using a solution containing 75% (v/v) water and 25% (v/v) DMSO. Different concentrations of formulated compounds or mixtures were sprayed onto the insect diet at 2.5 μl, using a custom-built micro atomizer, at two replications. After application, microtiter plates were incubated at 28±1° C., 80±5% R^H for 2 days. Larval 10 mortality was then visually assessed.

[2] = system: green peach aphid (Myzus persicae); assay: Green peach aphid (Myzus persicae) systemic test, artificial diet under membrane; conditions: 72 h, read-out: mortality in comparison with untreated controls
Experimental: as §1
For evaluating control of green peach aphid (Myzus persicae) through systemic means the test unit consisted of 96-well-microtiter plates containing liquid artificial diet under an artificial membrane. The compounds were formulated using a solution containing 75% v/v water and 25% v/v DMSO. Different concentrations of formulated compounds were pipetted into the aphid diet, using a custom built pipetter, at two replications. After application, 5-8 adult aphids were placed on the artificial membrane inside the microtiter plate wells. The aphids were then allowed to suck on the treated aphid diet and incubated at about 23±1° C. and about 50±5% relative humidity for 3 days. Aphid mortality and fecundity was then visually assessed.

[3] = system: tobacco budworm (Heliothis virescens); assay: Tobacco budworm (Heliothis virescens) microtiter insect-diet test; conditions: 120 h, read-out: mortality in comparison with untreated controls
Experimental: as §1
(§2) For evaluating control of tobacco budworm (Heliothis virescens) the test unit consisted of 96-well-microtiter plates containing an insect diet and 15-25 H. virescens eggs. The compounds were formulated using a solution containing 75% v/v water and 25% v/v DMSO. Different concentrations of formulated compounds were sprayed onto the insect diet at 10 μl, using a custom built micro atomizer, at two replications. After application, microtiter plates were incubated at about 28±1° C. and about 80±5% relative humidity for 5 days. Egg and larval mortality was then visually assessed.

[4] = system: vetch aphid (Megoura viciae); assay: Vetch aphid (Megoura viciae) broad bean leaf disk test, contact or systemic; conditions: foliar, 120 h, read-out: mortality in comparison with untreated controls
Experimental: as §1
For evaluating control of vetch aphid (Megoura viciae) through contact or systemic means the test unit consisted of 24-well-microtiter plates containing broad bean leaf disks.
The compounds were formulated using a solution containing 75% v/v water and 25% v/v DMSO. Different concentrations of formulated compounds were sprayed onto the leaf disks at 2.5 μl, using a custom built micro atomizer, at two replications. After application, the leaf disks were air-dried and 5-8 adult aphids placed on the leaf disks inside the microtiter plate wells. The aphids were then allowed to suck on the treated leaf disks and incubated at about 23±1° C. and about 50±5% relative humidity for 5 days. Aphid mortality and fecundity was then visually assessed.

[5] = system: boll weevil (Anthonomus grandis); assay: Boll weevil (Anthonomus grandis) microtiter insect-diet test; conditions: 120 h, read-out: mortality in comparison with untreated controls
Experimental: as §1
as §2, with “boll weevil (Anthonomus grandis)” for “tobacco budworm (Heliothis virescens)”, “5-10 A. grandis” for “15-25 H. virescens”, “5” for “10”, “25±1°” for “28±1°”, “75±5%” for “80±5%”

[6] = system: Greenhouse Whitefly (Trialeurodes vaporariorum); assay: Greenhouse whitefly (Trialeurodes vaporariorum) egg plant leaf disk test; conditions: foliar, 144 h, read-out: mortality in comparison with untreated controls
Experimental: as §1
For evaluating control of Greenhouse Whitefly (Trialeurodes vaporariorum) the test unit consisted of 96-well-microtiter plates containing a leaf disk of egg plant leaf disk with white fly eggs. The compounds or mixtures were formulated using a solution containing 75% water and 25% DMSO. Different concentrations of formulated were sprayed onto the insect diet at 2.5 μl, using a custom-built micro atomizer, at two replications. After application, microtiter plates were incubated at 23±1° C., 65±5% R^H for 6 days. Mortality of hatched crawlers was then visually assessed.

CCS(=O)(=O)c1c(-c2cn3c(=O)n(C)c(C(F)(F)F)cc3n2)nc2ccc(C(F)(F)F)cn12 [I.1, 2-[3-ethylsulfonyl-6-(trifluoromethyl)imidazo[1,2-a]pyridin-2-yl]-6-methyl-7-(trifluoromethyl)imidazo[1,2-c]pyrimidin-5-one] was tested, and the mortality at 2500 ppm [1] was ≥ 75%, the mortality at 2500 ppm [2] was > 75% and the mortality at 2500 ppm [3] was > 75%. For the same compound, the mortality at 2500 ppm [4] was > 75% and the mortality at 800 ppm [5] was > 75%.

With CCS(=O)(=O)c1c(-c2cn3c(=O)n(C4CC4)c(C(F)(F)F)cc3n2)nc2ccccn12 [I.2, 6-cyclopropyl-2-[3-(ethanesulfonyl)imidazo[1,2-a]pyridin-2-yl]-7-(trifluoromethyl)imidazo[1,2-c]pyrimidin-5-one] the mortality at 2500 ppm [6] was ≥ 75%, the mortality at 2500 ppm [1] was ≥ 75% and the mortality at 2500 ppm [2] was > 75%. For the same compound, the mortality at 828 ppm [5] was > 75%.

CCS(=O)(=O)c1c(-c2cn3c(=O)n(C4CC4)c(C(F)(F)F)cc3n2)nn2ccccc12 [I.11, 6-cyclopropyl-2-(3-ethylsulfonylpyrazolo[1,5-a]pyridin-2-yl)-7-(trifluoromethyl)imidazo[1,2-c]pyrimidin-5-one] was tested, and the mortality at 800 ppm ([1]; 800 ppm) was ≥ 75%, the mortality at 800 ppm [2] was > 75% and the mortality at 800 ppm [3] was > 75%. The mortality at 800 ppm [5] was > 75%.

For CCS(=O)(=O)c1c(-c2cn3c(=O)n(C)c(C(F)(F)F)cc3n2)nc2n1CCCC2 [I.13, 2-(3-ethylsulfonyl-5,6,7,8-tetrahydroimidazo[1,2-a]pyridin-2-yl)-6-methyl-7-(trifluoromethyl)imidazo[1,2-c]pyrimidin-5-one], the mortality at 800 ppm [5] was > 75%.

— US20220411428A1, “Pyrimidone Derivatives Containing Two Fused Bicyclic Rings” (priority 2019, published 2022)
